Reference: patent US3974281A, “5-Methyl-1-phenyl-2-(1H)-pyridone compositions and methods of use” (priority 1974, dated 1976)
“Also recorded” adds a separate entry of the source.

Tests used:
[1] = tested on: rats with the hind limb inflammed; assay: Analgesic activity, rats with inflamed hind limb (absence of squeal on flexion of inflamed ankle joint); type: in vivo, rat; conditions: oral
Protocol: the end-point for analgesic testing in rats with the hind limb inflammed is based on the absence of a squeal in response to flexion of the inflammed ankle joint (Method described by S. Margolin, Proceedings of an International Symposium on Non-Steroidal Anti-Inflammatory Drugs, Excerpta Medica International Congress, Series No. 82, 1964).
With AMR-93, the median effective dose was 325 ± 45 mg./kg.

[2] = tested on: edema (swelling), experimental inflammation in the hind limb of rats; assay: Anti-inflammatory activity, reduction of edema of experimentally inflamed hind limb; type: in vivo, albino rats; conditions: oral
Protocol: anti-inflammatory activity was assayed by the method described by Margolin (ibid.) utilizing albino rats. The anti-inflammatory bio-assay basis is the ability to reduce the edema (swelling) when an experimental inflammation is induced in the hind limb of the rats.

[3] = tested on: experimentally-induced fever in albino rabbits; assay: Anti-pyretic activity, experimentally-induced fever in rabbits; type: in vivo
Protocol: anti-pyretic activity testing is based upon the ability of the drug to suppress the experimentally-induced fever in albino rabbits (F. M. Berger, et al. J. Pharmacology and Experimental Therapeutics, Vol. 127, No. 1, 1959 based upon the original presentations of G. Brownlee Quart. J. Pharm; Vol. 10, Pg. 609, 1937 and Quart. J. Pharm., Vol. 12, Pg. 45, 1939). The drugs under test are administered intraperitoneally and the response is compared to that of saline controls. The average change in temperature over a period of three hours following the administration of aminopyrine (100 mg./kg. i.p.), AMR-69 (100 mg./kg. i.p.) and the saline (isotonic) controls were as follows:
The effective anti-pyretic activity of AMR-69 in rabbits has been noted previously.

[4] = tested on: rat lung tissues; assay: Protection of mucous membranes against noxious agents, gross examination of rat lung tissues; type: in vivo
[5] = tested on: dog lung tissues; assay: Protection of mucous membranes against noxious agents, microscopic examination of dog lung tissues; type: in vivo
[6] = tested on: mucous linings of the respiratory system; assay: Clinical trials on humans with sinusitis, post-nasal drip, rhinitis, conjunctivitis, headache, earache, sore throat; type: in vivo, human; conditions: oral capsule, approximately 400 mg. per capsule
[7] = tested on: skin conditions; assay: Effect on skin conditions (dermatitis, itching, insect sting, poison ivy) in humans; type: in vivo, human
[8] = tested on: serum uric acid; assay: Reduction in serum uric acid levels, rats; type: in vivo, albino male and female rats
Protocol: normal adult albino male and female rats were given repeated graded doses of AMR-69 and the effect upon serum uric acid levels was determined. There were 10 males and 10 females in each group. The control group received the placebo and the drug was administered orally by admixture to the food. The serum uric acid determination was one of a series performed utilizing the Autotechnicon technique (Lofland et al., 1965 Technicon Symposium) using the Standard SMA-12 procedure (based upon procedure of Bittner et al., AM. J. Clin. Path. 40:423, 1963).
The lowering in serum uric acid levels shown by AMR-69 in tests on rats and on dogs has been noted.

[9] = tested on: serum uric acid; assay: Reduction in serum uric acid levels, dogs; type: in vivo, Beagle type dogs
Protocol: adult male and female Beagle type dogs from a closed colony weighing approximately 10 to 15 kilograms were utilized in the study. There were seven to nine dogs per group. AMR-69 was given orally in capsules to two groups and the third group received placebo capsules. […] The method for determining serum uric acid was performed using the Autotechnicon and the SMR-12 series of analyses. The specific method was based upon the procedure of Lofland et al. The mean serum uric acid values obtained with repeated doses of AMR-69 were as follows: […]

[10] = tested on: glucose level in the serum; assay: Reduction in serum glucose levels, nine week diet test in rats; type: in vivo, weanling rats of the Carworth Farms CFE Strain
[11] = Acute toxicity in mice; type: in vivo; conditions: mouse, in vivo, ip; fasted albino mice, intraperitoneal; read-out: Intraperitoneally LD50
Protocol: (§1) in fasted albino mice (Flanders) the LD50 for AMR-69 and aminopyrine was determined by standard procedures with the following results: […]

[12] = tested on: fasted albino mice (Flanders); assay: Acute toxicity in mice; type: in vivo; conditions: oral and intraperitoneal
Protocol: as §1

[13] = tested on: rabbit eye (conjunctival sac); parameters: species or system albino rabbits of the New Zealand strain; conditions: in vivo
Protocol: six male albino rabbits of the New Zealand strain were incorporated in this study. A dosage of 0.1 ml. of AMR-69-62 (2% Aqueous Solution) was introduced into the conjunctival sac of the left eye of each rabbit; the right eye served as an untreated control. The six treated rabbit eyes were scored against the corresponding untreated control eyes according to the method of Draize (Draize, J.H., in Appraisal of the Safety of Chemicals in Foods, Drugs and Cosmetics, Assoc. of Food and Drug Officials of U.S., Austin, Tex., 1959) at 0.5 minutes, 30 minutes and 3.0 hours after administration of AMR-69.

[14] = tested on: blood; assay: Blood studies after administration for efficacy, and acute and chronic toxicity; type: in vivo; conditions: therapeutic or sublethal amounts; rats, mice, rabbits and dogs
[15] = tested on: mucous membranes of the nasopharynx and lungs; assay: Protection of mucous membranes of the nasopharynx and lungs, comparison with related pyridones; type: in vivo; conditions: comparison with related pyridones
[16] = Tolerability on administration over extended periods; type: in vivo
Excerpt: It may be administered orally, topically, parenterally, intradermally, by inhalation spray in formulations containing conventional non-toxic pharmaceutically acceptable carriers, adjuvants and vehicles. The term parenteral as used herein includes subcutaneous injections, intravenous, intromuscular, intracisternal or intrathecal injection or infusion techniques.

[17] = Solubility; type: physicochemical
[18] = Absorption into the blood stream; conditions: in vivo

Cc1ccc(=O)n(-c2ccccc2)c1 [AMR-69, 5-methyl-1-phenyl-2-(1H)-pyridone]
ED50 ([1]; Rattus norvegicus, read-out: oral ED50 (median analgesic dose)): 145 ± 26 mg/kg
analgesic effectiveness by the oral route as compared to aminopyrine [1]: as effective as aminopyrine
onset of analgesic effect as compared to aminopyrine [1]: more rapid onset of analgesic effect
ED50 ([2]; Rattus norvegicus, read-out: oral median effective dose (ED50), anti-inflammatory): 200 ± 46 mg/kg
onset of the anti-inflammatory therapeutic effect ([2]; vs aminopyrine): more rapid onset of the therapeutic effect
average change in temperature over a period of three hours ([3]; 100 mg./kg. i.p., fevered albino rabbits, saline controls +0.9 ±0.17°C): -0.4 ±0.12 °C
reduction in fever as compared to the saline control ([3]; 100 mg./kg. i.p., aminopyrine t = 6.6, p < 0.01, AMR-69 t = 6.3, p < 0.01): highly significant
anti-pyretic activity ([3]; rabbits, induced fever): effective anti-pyretic agent
protection against noxious focal respiratory tract pathology (petechiae, edema, hemorrhage, focal infection) [4]: affording protection against noxious focal respiratory tract pathology
protection against noxious focal respiratory tract pathology (petechiae, edema, hemorrhage, focal infection) [5]: affording protection against noxious focal respiratory tract pathology
noxious effect of acute and chronic infections of the nasopharynx, cranial sinuses [6]: arrested and relieved
relief from the symptom, skin conditions ([7]; oral capsule (procedure of preceding section)): Relief from the symptom was rapid in each instance
relief from itching, contact dermatitis (poison ivy) ([7]; powder applied directly to the affected skin areas): substantially immediate relief from the characteristic itching
time to cessation of weeping of the affected areas ([7]; powder applied topically, poison ivy): thirty
crystal deposition of uric acid or its salts (joints, liver, muscles, kidneys) ([8]; microscopic examination of focal tissues of sacrificed animals): no evidence of crystal deposition
reduction in serum uric acid, significance ([8]; rats, 30 and 100 mg./kg.): statistically significant
serum uric acid, 30 mg./kg. ([8]; rats, repeated oral 30 mg./kg. in food, placebo 1.53 ± 0.20 mg.%, T = 1.92 (P = 0.06)): 1.05 ± 0.15 mg.%
serum uric acid, 100 mg./kg. ([8]; rats, repeated oral 100 mg./kg. in food, placebo 1.53 ± 0.20 mg.%, T = 3.25 (P< 0.01)): .78 ± 0.11 mg %
reduction in serum uric acid values versus control ([9]; oral capsules (P 0.05)): significantly different from the control
mean serum uric acid, 25 mg/kg ([9]; repeated oral capsules 25 mg/kg, placebo 0.78 ± 0.046 mg.%, T = 2.84 (P<0.02)): 0.59 ± 0.051 mg.%
mean serum uric acid, 75 mg/kg ([9]; repeated oral capsules 75 mg/kg, placebo 0.78 ± 0.046 mg.%, T = 2.40 (P<0.05)): 0.60 ± 0.049 mg.%
mean glucose, female, 600 mg./kg./day ([10]; female rats, 600 mg./kg./day in diet, control 173.0 mg.%): 144.8 mg.%
mean glucose, female, 900 mg./kg./day ([10]; female rats, 900 mg./kg./day in diet, control 173.0 mg.%): 136 mg/dL
mean glucose in the serum, male, 600 mg./kg./day ([10]; male rats, 600 mg./kg./day in diet, nine weeks, control 155.8 mg.%): 131.8 mg.%
mean glucose in the serum, male, 900 mg./kg./day ([10]; male rats, 900 mg./kg./day in diet, nine weeks, control 155.8 mg.%): 132.6 mg.%
LD50 [11]: 420 ± 9 mg/kg
lethal dosage level / toxicity as compared to aminopyrine [12]: markedly lower toxicity; also recorded: significant higher lethal dosage level as compared to aminopyrine
Draize evaluation of eye irritation [13]: would not be considered as an irritant to the eye
group mean Draize score at 0.5 minutes [13]: 2.0
group mean Draize score at 30 minutes [13]: 0.0
group mean Draize score at 3.0 hours [13]: 0.0
blood dyscrasias [14]: no indication of blood dyscrasias
protection of mucous membranes of the nasopharynx and lungs [15]: effective
irritation of body tissues at effective dosage levels ([16]; effective dosage levels): relatively non-irritating to the various body tissues
side reactions on administration over extended periods ([16]; extended periods): no untoward side reactions
solubility compared with other analgesic uricosuric agents [17]: more readily soluble than other analgesic uricosuric agents
absorption in the blood stream [18]: very rapidly absorbed in the blood stream
